In article PMC8373216, “Development and Preclinical Evaluation of New Inhaled Lipoglycopeptides for the Treatment of Persistent Pulmonary Methicillin-Resistant Staphylococcus aureus Infections” (Antimicrobial Agents and Chemotherapy, 2021):
Where two headings read alike, the source gives them in different places.

Columns and labels:
[1] = system: MRSA ATCC BAA 1556 (USA300) biofilm; assay: Static MRSA biofilm killing, plastic microtiter plate, MEM
[2] = Single-dose nebulized nose-only inhalation PK in healthy rats; assay type: in vivo, rat
Procedure: Rats were acclimated in the study facility for approximately 1 week prior to study start. Ten or eleven rats per cohort were loaded into the chamber at the time of dosing. […] An additional airflow set to 6 liters/min was admixed with the nebulizer output to further direct the test articles to the animals. […] The remaining port on the chamber was fit with an aerosol sampling filter for dose determination over a 5 min sampling period. The average dose delivered to the nose of each animal was calculated using an algorithm that was previously described ([49]). […] Animals were euthanized for collection of whole lungs and plasma at time points ranging from immediate postdose (IPD; approximately 30 min after dosing for nebulization) to 168 h postdose (7 days). Drugs were extracted from tissues using customized protein precipitation methods with an appropriate internal standard for each compound and transferred for analysis by LC-MS/MS (Sciex API4500 or API6500+ mass spectrometer [Sciex, Framingham, MA]). GraphPad Prism (La Jolla, CA) was used for statistical analyses and data plotting. […] The data were applied to a noncompartmental analysis after extravascular dosing input and fit to a linear up/log down model. Statistical analysis of in vitro intracellular and biofilm activity was based on a two-way ANOVA with a Bonferroni post test. In vivo statistical analysis was based on the Kolmogorov-Smirnov test.

Streptococcus pyogenes = assay: Expanded panel broth microdilution MIC/MBC; assay type: cell-based
Streptococcus anginosus = assay: Expanded panel broth microdilution MIC/MBC; assay type: cell-based; conditions: for MIC: Streptococcus anginosus
[3] = system: Streptococcus constellatus; assay: Expanded panel broth microdilution MIC; assay type: cell-based
Enterococcus faecalis = assay: Expanded panel broth microdilution MIC/MBC; assay type: cell-based
S. aureus = assay: Expanded panel broth microdilution MIC/MBC; conditions: for MIC: Staphylococcus aureus
Enterococcus faecium = assay: Expanded panel broth microdilution MIC/MBC; assay type: cell-based; conditions: for MIC: Enterococcus faecium
MSSA ATCC 29213 = assay: In-house broth microdilution MIC screening; assay type: cell-based; conditions: Staphylococcus aureus, read-out: MIC Value, MSSA ATCC 29213
[4] = single nebulized nose-only inhaled dose, healthy rats

CCCCCCCCCCNCCN[C@@]1(C)C[C@H](O[C@H]2[C@H](Oc3c4cc5cc3Oc3ccc(cc3Cl)[C@@H](O)[C@@H](NC(=O)[C@@H](CC(C)C)NC)C(=O)N[C@@H](CC(N)=O)C(=O)N[C@H]5C(=O)N[C@H]3C(=O)N[C@H](C(=O)N[C@H](C(=O)O)c5cc(O)c(CNCP(=O)(O)O)c(O)c5-c5cc3ccc5O)[C@H](O)c3ccc(c(Cl)c3)O4)O[C@H](CO)[C@@H](O)[C@@H]2O)O[C@@H](C)[C@H]1O [Telavancin, telavancin]
12 µg/g: Lung Cmax [2, 4]
81%: Drug lung level at 120 h ([2]; relative to IPD level, rat lung)
0.25 µg/mL: MIC (Enterococcus faecalis; Enterococcus faecalis) | MIC (S. aureus; NRS4 / VISA, S. aureus NRS4, VISA) | MIC (S. aureus; NRS23, S. aureus NRS23, hVISA) | MIC (S. aureus; NRS52 / VISA, S. aureus NRS52, VISA) | MIC (S. aureus; VISA, read-out: MIC (median), S. aureus VISA, 5 isolates)
0.06 µg/mL: MIC (Streptococcus pyogenes; S. pyogenes MMX 946, ermR) | MIC (Streptococcus pyogenes; S. pyogenes ermR, 1 isolate) | MIC (Streptococcus pyogenes; Streptococcus pyogenes) | MIC (Streptococcus pyogenes; Streptococcus pyogenes, ATCC19615) | MIC (Streptococcus pyogenes; Streptococcus pyogenes, read-out: MIC (median)) | MIC (Streptococcus anginosus) | MIC (Streptococcus anginosus; ATCC33397) | MIC (S. aureus; ATCC29213 / MSSA, S. aureus ATCC 29213, MSSA) | MIC (S. aureus; ATCC43300 / MRSA, S. aureus ATCC 43300, MRSA) | MIC (S. aureus; ATCCBAA1556|MRSA|USA300, S. aureus ATCC BAA-1556, MRSA, USA300 (expanded panel)) | MIC (S. aureus; ATCCBAA1756|MRSA|NRS384|USA300, S. aureus NRS 384, ATCC BAA-1756, MRSA, USA300) | MIC (S. aureus; MRSA / NRS123 / USA400, S. aureus NRS123, MRSA, USA400) | MIC (S. aureus; MRSA / NRS725 / USA300, S. aureus NRS725, MRSA, USA300) | MIC (S. aureus; MRSA / USA300, S. aureus MMX 3982, MRSA, USA300) | MIC (S. aureus; MRSA, S. aureus MMX 5715, MRSA) | MIC (S. aureus; MRSA, S. aureus MMX 7899, MRSA) | MIC (S. aureus; MRSA, S. aureus MMX 7900, MRSA) | MIC (S. aureus; MRSA, S. aureus MMX 7902, MRSA) | MIC (S. aureus; MRSA, S. aureus MMX 7903, MRSA) | MIC (S. aureus; MRSA, read-out: MIC (median), S. aureus MRSA, 12 isolates) | MIC (S. aureus; MSSA, S. aureus MMX 7907, MSSA) | MIC (Enterococcus faecium; E. faecium MMX 4204, VSE) | MIC (Enterococcus faecium; E. faecium VSE, 1 isolate) | MIC (Enterococcus faecium; VRE, E. faecium MMX 173, VanB VRE) | MIC (Enterococcus faecium; VRE, E. faecium VanB VRE, 1 isolate)
0.19 µg/mL: MIC (Enterococcus faecalis; Enterococcus faecalis, read-out: MIC (median)) | MIC (S. aureus; read-out: MIC (median), S. aureus hVISA, 2 isolates)
8: MIC:MBC (Enterococcus faecalis; E. faecalis VanA VRE)
1 µg/mL: MIC (Enterococcus faecalis; E. faecalis VanA VRE, 1 isolate) | MIC (Enterococcus faecalis; Enterococcus faecalis, VRE)
≥ 10 µg/mL: Concentrations with statistically significant reduction versus control biofilm ([1]; two-way ANOVA, Bonferroni)
1: MIC:MBC (Streptococcus pyogenes; S. pyogenes ermR) | MIC:MBC (S. aureus; S. aureus MRSA, MBC median of n = 5) | MIC:MBC (S. aureus; S. aureus MSSA, MBC on one organism) | MIC:MBC (S. aureus; S. aureus VISA, MBC median of n = 2) | MIC:MBC (S. aureus; S. aureus hVISA, MBC on one organism)
approximately 2 log10 CFU/ml: Reduction in MRSA biofilm titer versus control ([1]; doses 1 to 10 μg/ml)
0.063 µg/mL: MIC (MSSA ATCC 29213)
>8: MIC:MBC (Streptococcus anginosus; S. anginosus AGS) | MIC:MBC (Enterococcus faecalis; E. faecalis VSE, MBC on one organism) | MIC:MBC (Enterococcus faecium; E. faecium VanB VRE)
2 µg/mL: MIC (Enterococcus faecium; VRE, E. faecium MMX 851, VanA VRE) | MIC (Enterococcus faecium; VRE, E. faecium VanA VRE, 1 isolate)
BLQ: Plasma Cmax [2, 4]
>4: MIC:MBC (Enterococcus faecium; E. faecium VanA VRE)
0.09 µg/mL: MIC (S. aureus; MSSA, read-out: MIC (median), S. aureus MSSA, 4 isolates)
0.12 µg/mL: MIC (Enterococcus faecalis; Enterococcus faecalis, ATCC29212) | MIC (S. aureus; ATCC13709 / MSSA, S. aureus ATCC 13709, MSSA) | MIC (S. aureus; MSSA, S. aureus MMX 7908, MSSA) | MIC (S. aureus; NRS2, S. aureus NRS2, hVISA;Mu3) | MIC (S. aureus; NRS13 / VISA, S. aureus NRS13, VISA)
21.1 days: half-life ([2]; male, Sprague Dawley, rat, in vivo, inhaled or intranasal, single nebulized nose-only inhaled dose, healthy rats, noncompartmental analysis, read-out: Lung t1/2 (converted))
0.03 µg/mL: MIC ([3]; S. constellatus AGS, 1 isolate) | MIC ([3]; Streptococcus constellatus) | MIC (S. aureus; MRSA, S. aureus MMX 7901, MRSA)
0.5 µg/mL: MIC (S. aureus; NRS1 / VISA, S. aureus NRS1, VISA, Mu50) | MIC (S. aureus; NRS22 / VISA, S. aureus NRS22, VISA)
3877 µg·h/g: Lung AUC0-∞ [2, 4]
